Marks after values point to notes of the source that are not given here. Each block holds one compound with its values, some of them ahead of it. Non-standard residues stand in square brackets, D forms with d. Residues, ends and D or L forms follow the SMILES beside them. Lys(Thioacetyl) = CC(=S)NCCCC[C@H](N)C(=O)O
Key:
SIRT1 = biological target: T1, SIRT1 (Homo sapiens, UniProt Q96EB6); assay: HPLC-based SIRT1 inhibition assay with purified GST-SIRT1; type: biochemical
T1 construct: made in house
T1 sequence (Q96EB6 1-747): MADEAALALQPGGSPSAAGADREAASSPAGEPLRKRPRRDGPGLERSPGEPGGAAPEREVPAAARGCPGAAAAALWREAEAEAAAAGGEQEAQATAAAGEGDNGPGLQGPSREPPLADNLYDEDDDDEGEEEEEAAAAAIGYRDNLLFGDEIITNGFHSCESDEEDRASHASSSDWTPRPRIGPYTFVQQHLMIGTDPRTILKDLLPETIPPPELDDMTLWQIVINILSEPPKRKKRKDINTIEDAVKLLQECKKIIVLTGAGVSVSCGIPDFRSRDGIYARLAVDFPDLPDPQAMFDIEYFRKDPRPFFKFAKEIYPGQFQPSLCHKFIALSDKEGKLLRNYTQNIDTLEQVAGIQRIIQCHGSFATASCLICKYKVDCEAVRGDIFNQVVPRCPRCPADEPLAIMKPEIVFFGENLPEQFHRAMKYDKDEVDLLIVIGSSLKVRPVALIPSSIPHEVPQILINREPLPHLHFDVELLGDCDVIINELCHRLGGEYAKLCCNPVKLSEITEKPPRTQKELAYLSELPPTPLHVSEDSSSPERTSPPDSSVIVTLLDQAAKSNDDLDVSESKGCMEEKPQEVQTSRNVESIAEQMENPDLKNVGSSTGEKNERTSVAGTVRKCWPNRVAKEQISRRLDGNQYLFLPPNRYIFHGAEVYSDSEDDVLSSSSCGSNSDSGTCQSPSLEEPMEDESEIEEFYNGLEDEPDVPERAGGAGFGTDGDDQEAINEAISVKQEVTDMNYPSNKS
Procedure: Inhibition assays with purified SIRT1, SIRT2, and SIRT3. GST-SIRT1 that could be produced in a laboratory was used for the SIRT1 inhibition assay. SIRT2 and SIRT3 are obtainable from commercial sources known to those skilled in the art. Consistent HPLC-based assay procedures were used for the inhibition assays with SIRT1, SIRT2, and SIRT3. […] An enzymatic reaction was initiated by the addition of an enzyme at 37° C. and was allowed to be incubated at 37° C.: 10 minutes as follows: for SIRT1 assay, or 60 minutes for SIRT2 and SIRT3 assays. Incubation was quenched at the indicated time with the following stop solution: 100 mM HCl and 0.16 M acetic acid. […] All peptide stock solutions were prepared in ddH2O. IC50 values were estimated from Dixon plots (1/v0 vs. [inhibitor]) as an indication of the inhibition potency.

HDAC8 [1] = biological target: T2, HDAC8 (Homo sapiens, UniProt Q9BY41); assay: HPLC-based assay with purified HDAC8 (de(thio)acetylation of peptides); type: biochemical; design: key to HDAC8 (sensitive / resistant to HDAC8): +: Sensitive to HDAC8; —: Resistant to HDAC8; settings: enzymatic dethioacetylation by HDAC8
T2 construct: purchased
T2 sequence (Q9BY41 1-377): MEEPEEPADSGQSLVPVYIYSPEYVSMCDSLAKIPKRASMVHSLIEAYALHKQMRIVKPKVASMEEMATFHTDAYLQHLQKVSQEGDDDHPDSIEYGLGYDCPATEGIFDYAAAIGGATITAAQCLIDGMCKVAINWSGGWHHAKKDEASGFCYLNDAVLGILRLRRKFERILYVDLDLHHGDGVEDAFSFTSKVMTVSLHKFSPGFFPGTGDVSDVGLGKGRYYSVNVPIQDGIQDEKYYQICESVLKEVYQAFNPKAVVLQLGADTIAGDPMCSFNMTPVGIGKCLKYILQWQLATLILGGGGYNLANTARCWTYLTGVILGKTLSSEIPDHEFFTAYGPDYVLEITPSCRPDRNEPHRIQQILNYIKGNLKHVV
Procedure: To test the foregoing premise, peptides 1b, 2, and 3a were allowed to be incubated for 2 hours at room temperature in the HDAC8 assay buffer in a HPLC-based HDAC8 assay. […] FIG. 5 provides representative HPLC chromatograms from HDAC8 assays with peptides 1b, 2, and 3a. All assays were performed in duplicate and essentially the same HPLC chromatograms were obtained for the duplicates. The small peak with tR˜27 minutes in the second chromatogram was from a minor impurity in the purified peptide 2 sample, rather than the dethioacetylated product. The lack of detectable dethioacetylation of peptide 3a was apparent from the absence of a peak with tR˜34 minutes, shown for peptide 3c in the third chromatogram.
Assay with purified HDAC8. The purified HDAC8 could be obtained from a commercial source for use with a HPLC-based HDAC8 assay. In brief, a HDAC8 assay solution had the following components: 25 mM Tris.HCl (pH 8.0), 137 mM NaCl, 2.7 mM KCl, 1 mM MgCl2, 1 mg/mL BSA (SIGMA Cat. #A3803 with reduced fatty acid content), 0.3 mM peptide 1b, 2, or 3a, and 1.5 μM HDAC8. […] An enzymatic reaction was initiated by the addition of HDAC8 at room temperature and was allowed to be incubated at room temperature for 2 hours before being quenched with the following stop solution: 1.0 M HCl and 0.16 M acetic acid. The quenched assay solutions were directly injected into a reversed-phase HPLC C18 column (100 Å, 0.46×25 cm), eluting with the following gradients of ddH2O containing 0.05% (v/v) trifluoroacetic acid (mobile phase A) and acetonitrile containing 0.05% (v/v) trifluoroacetic acid (mobile phase B): linear increase from 0% B to 35% B (for the assay with peptide 2 or 1b) or 40% B (for the assay with peptide 3a or […]) from 0-40 minutes (1 mL/min), and UV monitoring at 214 nm. […] The enzymatically formed peptide 1c was confirmed by its comigration with the chemically synthesized authentic sample and by MALDI-TOF mass spectrometric analysis, and was quantified by HPLC peak integration and comparison with that of synthetic authentic sample.

SIRT2 = biological target: T3, SIRT2 (Homo sapiens, UniProt Q8IXJ6); assay: HPLC-based SIRT2 inhibition assay with purified SIRT2; type: biochemical; settings: SIRT2 vs SIRT1
T3 construct: purchased
T3 sequence (Q8IXJ6 1-389): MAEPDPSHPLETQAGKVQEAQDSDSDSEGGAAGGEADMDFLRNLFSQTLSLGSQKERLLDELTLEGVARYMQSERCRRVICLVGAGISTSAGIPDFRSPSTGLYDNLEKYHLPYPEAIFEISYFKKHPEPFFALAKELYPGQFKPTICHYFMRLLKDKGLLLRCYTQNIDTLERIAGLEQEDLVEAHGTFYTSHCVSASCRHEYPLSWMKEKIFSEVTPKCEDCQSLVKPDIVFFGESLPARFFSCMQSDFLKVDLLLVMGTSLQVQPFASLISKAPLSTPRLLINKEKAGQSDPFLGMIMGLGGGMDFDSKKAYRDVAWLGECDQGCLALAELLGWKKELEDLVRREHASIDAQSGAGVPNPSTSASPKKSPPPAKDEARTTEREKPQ
Procedure: (§1) Inhibition assays with purified SIRT1, SIRT2, and SIRT3. GST-SIRT1 that could be produced in a laboratory was used for the SIRT1 inhibition assay. SIRT2 and SIRT3 are obtainable from commercial sources known to those skilled in the art. Consistent HPLC-based assay procedures were used for the inhibition assays with SIRT1, SIRT2, and SIRT3. In brief, an inhibition assay solution had the following components: 25 mM (or 50 mM for SIRT2 assay) Tris.HCl (pH 8.0) 137 mM NaCl, 2.7 mM KCl, 1 mM MgCl2, 1 mg/mL BSA (SIGMA Cat. #A3803 with reduced fatty acid content, for SIRT2 assay only), 0.5 mM β-NAD^+, 0.3 mM peptide substrate (peptide 1b for SIRT1 and SIRT2 assays; peptide 3b for SIRT3 assay), an inhibitor (peptide 1a, 2, or 3a) with varied concentrations including 0, and an enzyme (GST-SIRT1, 0.15 μM; SIRT2, 0.3 μM; or SIRT3, 2.0 μM). […] An enzymatic reaction was initiated by the addition of an enzyme at 37° C. and was allowed to be incubated at 37° C.: 10 minutes as follows: for SIRT1 assay, or 60 minutes for SIRT2 and SIRT3 assays. […] The enzymatic deacetylation products (peptide 1c in SIRT1 and SIRT2 assays; peptide 3c in SIRT3 assay) were confirmed by their comigration with the chemically synthesized authentic samples and by MALDI-TOF mass spectrometric analysis, and were quantified by HPLC peak integration and comparison with those of synthetic authentic samples. […]

HDAC8 [2] = biological target: T2, HDAC8; settings: inventors' earlier work, Fatkins et al.; cited from earlier work
SIRT3 = biological target: T4, SIRT3 (Homo sapiens, UniProt Q9NTG7); assay: HPLC-based SIRT3 inhibition assay with purified SIRT3; type: biochemical; settings: SIRT3 vs SIRT1
T4 construct: purchased
T4 sequence (Q9NTG7 1-399): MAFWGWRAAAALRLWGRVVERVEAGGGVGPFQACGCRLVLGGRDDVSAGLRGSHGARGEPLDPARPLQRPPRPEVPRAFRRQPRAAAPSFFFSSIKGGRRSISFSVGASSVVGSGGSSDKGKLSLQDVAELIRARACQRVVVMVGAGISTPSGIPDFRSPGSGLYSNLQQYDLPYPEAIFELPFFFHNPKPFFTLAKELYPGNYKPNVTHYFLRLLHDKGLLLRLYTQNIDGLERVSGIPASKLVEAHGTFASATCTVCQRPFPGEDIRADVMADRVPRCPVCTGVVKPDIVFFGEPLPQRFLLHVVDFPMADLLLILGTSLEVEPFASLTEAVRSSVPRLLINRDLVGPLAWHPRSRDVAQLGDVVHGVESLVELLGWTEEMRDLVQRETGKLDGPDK
Procedure: as §1

SIRT1, SIRT2, and SIRT3 = assay: Dethioacetylation of inhibitor peptides under the sirtuin inhibition assay conditions; type: biochemical, human; settings: same assay conditions as SIRT1/SIRT2/SIRT3 inhibition assays
Procedure: Inhibition assays with purified SIRT1, SIRT2, and SIRT3. GST-SIRT1 that could be produced in a laboratory was used for the SIRT1 inhibition assay. SIRT2 and SIRT3 are obtainable from commercial sources known to those skilled in the art. Consistent HPLC-based assay procedures were used for the inhibition assays with SIRT1, SIRT2, and SIRT3. In brief, an inhibition assay solution had the following components: 25 mM (or 50 mM for SIRT2 assay) Tris.HCl (pH 8.0) 137 mM NaCl, 2.7 mM KCl, 1 mM MgCl2, 1 mg/mL BSA (SIGMA Cat. #A3803 with reduced fatty acid content, for SIRT2 assay only), 0.5 mM β-NAD^+, 0.3 mM peptide substrate (peptide 1b for SIRT1 and SIRT2 assays; peptide 3b for SIRT3 assay), an inhibitor (peptide 1a, 2, or 3a) with varied concentrations including 0, and an enzyme (GST-SIRT1, 0.15 μM; SIRT2, 0.3 μM; or SIRT3, 2.0 μM). […] An enzymatic reaction was initiated by the addition of an enzyme at 37° C. and was allowed to be incubated at 37° C.: 10 minutes as follows: for SIRT1 assay, or 60 minutes for SIRT2 and SIRT3 assays. Incubation was quenched at the indicated time with the following stop solution: 100 mM HCl and 0.16 M acetic acid. The conversion of the limiting substrate to the product was maintained at ≦12%. The quenched assay solutions were directly injected into a reversed-phase HPLC C18 column (100 Å, 0.46×25 cm), eluting with the following gradients of ddH2O containing 0.05% (v/v) trifluoroacetic acid (mobile phase A) and acetonitrile containing 0.05% (v/v) trifluoroacetic acid (mobile phase B): linear increase from 0% B to 35% B (for SIRT1 assay) or 40% B (for SIRT2 and SIRT3 assays) from 0-40 minutes (1 mL/min), and UV monitoring at 214 nm. The enzymatic deacetylation products (peptide 1c in SIRT1 and SIRT2 assays; peptide 3c in SIRT3 assay) were confirmed by their comigration with the chemically synthesized authentic samples and by MALDI-TOF mass spectrometric analysis, and were quantified by HPLC peak integration and comparison with those of synthetic authentic samples. […] All peptide stock solutions were prepared in ddH2O. […]

decrease in SIRT1 inhibition potency following truncation of peptide 1a (SIRT1; vs peptide 1a): approximately 6 fold
Compound: CSCC[C@H](NC(=O)[C@H](CC(C)C)NC(=O)[C@H](CCCCNC(C)=S)NC(=O)[C@H](CCCCN)NC(=O)[C@@H](N)Cc1c[nH]cn1)C(=O)O [Peptide 4] (H-HK[Lys(Thioacetyl)]LM-OH)

IC50 (SIRT1): 10.4 ± 0.3 µM
Compound: CSCC[C@H](NC(=O)[C@H](CC(C)C)NC(=O)[C@H](CCCCNC(C)=S)NC(=O)[C@H](CCCCN)NC(=O)[C@@H](N)Cc1cnc[nH]1)C(=O)O [Peptide 4] (H-HK[Lys(Thioacetyl)]LM-OH)

The remaining lines, values behind:

Compound: CC(=S)NCCCC[C@H](NC(=O)OCC1c2ccccc2-c2ccccc21)C(=O)O [N^α-Fmoc-N^ε-thioacetyl-lysine, L-N^α-Fmoc-N^ε-thioacetyl-lysine]
IC25 for SIRT1 (SIRT1; concentration to achieve 25% inhibition): 2,000 uM
IC25 SIRT1 (SIRT1; concentration to achieve 25% inhibition, 0.5 mM β-NAD+, 0.3 mM peptide substrate): 2,000 (IC25) μM

Compound: CC(=O)N[C@@H](CCCCNC(C)=S)C(=O)O [N^α-acetyl-N^ε-thioacetyl-lysine, L-N^α-acetyl-N^ε-thioacetyl-lysine]
SIRT1 inhibition at 2 mM (SIRT1): No inhibition
SIRT1 inhibition at 2 mM (SIRT1; listed as L-N^α-acetyl-N^ε-thioacetyl-lysine): did not exhibit any SIRT1 inhibition

Compound: CSCC[C@H](NC(=O)[C@H](CC(C)C)NC(=O)[C@H](CCCCNC(C)=S)NC(=O)[C@H](CCCCN)NC(=O)[C@H](Cc1c[nH]cn1)NC(=O)[C@H](CCCNC(=N)N)NC(=O)[C@H](CO)NC(=O)[C@@H](NC(=O)[C@H](CO)NC(=O)[C@H](CCC(N)=O)NC(=O)CNC(=O)[C@H](CCCCN)NC(=O)[C@@H](N)CCCCN)[C@@H](C)O)C(=O)N[C@@H](Cc1ccccc1)C(=O)N[C@@H](CCCCN)C(=O)N[C@H](C(=O)N[C@@H](CCC(=O)O)C(=O)NCC(=O)O)[C@@H](C)O [Peptide 1a]
HDAC8 (sensitive / resistant to HDAC8) (HDAC8 [1]): +^c
inhibition potency against SIRT2 relative to that against SIRT1 (SIRT2): comparable inhibition potency
de(thio)acetylation by HDAC8 (previously demonstrated) (HDAC8 [2]): comparably de(thio)acetylated by HDAC8
inhibition potency weaker against SIRT3 than against SIRT1 (SIRT3): approximately 35 fold
formation of dethioacetylated peptide under sirtuin inhibition assay conditions (SIRT1, SIRT2, and SIRT3): did not give rise to detectable formation

Reference: patent publication US20080287653A1, “METHOD FOR PRODUCING INHIBITORS AND INHIBITORS FORMED THEREFROM” (THE UNIVERSITY OF AKRON, priority 2007, published 2008)
